Test results published in the supplement of paper PMC10307832.

Tests used:
Experiment in all cases: relative viability (nuclei count vs DMSO), 5 days (fraction); higher = more cells survive
NCI-H1355 = test system: NCI-H1355
Outline: (§1)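 A single step with final 0.05% Triton X-100, 1% formaldehyde and 1 ug/ml Hoechst fixed the cells and stained nuclei 5 days after treatment. Lung cancer cell lines in 1536-well plates had been treated by pin tool the day after seeding with one drug alone or a fixed anchor-drug dose plus five library-drug doses (not always all listed) in √10 steps, and nuclei were counted on 4× images. Relative viability is the ratio of nuclei in treated wells to nuclei in vehicle wells, taken as the median of duplicate plates.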

NCI-H1975 = test system: NCI-H1975
Outline: as §1

HCC-78 = test system: HCC-78
Outline: as §1

LCLC-97TM1 = test system: LCLC-97TM1
Outline: as §1

NCI-H1651 = test system: NCI-H1651
Outline: as §1

PC-3 [JPC-3] = test system: PC-3 [JPC-3]
Outline: as §1

NCI-H2087 = test system: NCI-H2087
Outline: as §1

NCI-H596 = test system: NCI-H596
Outline: as §1

LC-2-ad = test system: LC-2-ad
Outline: as §1

NCI-H1666 = test system: NCI-H1666
Outline: as §1

NCI-H838 = test system: NCI-H838
Outline: as §1

NCI-H650 = test system: NCI-H650
Outline: as §1

NCI-H661 = test system: NCI-H661
Outline: as §1

ChaGo-K-1 = test system: ChaGo-K-1
Outline: as §1

BEN = test system: BEN
Outline: as §1

LU99A = test system: LU99A
Outline: as §1

LXF-289 = test system: LXF-289
Outline: as §1

CCN(CC)CCCCNc1ncc2cc(-c3cc(OC)cc(OC)c3)c(NC(=O)NC(C)(C)C)nc2n1 + CC(C)C[C@H](NC(=O)[C@H](Cc1ccccc1)NC(=O)c1cnccn1)B(O)O [Bortezomib] (partner 0.002 µM)
relative viability (NCI-H1355; first compound 0.01 µM): 1.23
relative viability (NCI-H1355; first compound 0.03162 µM): 1.25
relative viability (NCI-H1355; first compound 0.1 µM): 1.29
relative viability (NCI-H1355; first compound 0.3162 µM): 1.41
relative viability (NCI-H1355; first compound 1 µM): 1.13
relative viability (NCI-H1975; first compound 0.01 µM): 0.442
relative viability (NCI-H1975; first compound 0.03162 µM): 0.375
relative viability (NCI-H1975; first compound 0.1 µM): 0.394
relative viability (NCI-H1975; first compound 0.3162 µM): 0.451
relative viability (NCI-H1975; first compound 1 µM): 0.365
relative viability (HCC-78; first compound 0.01 µM): 0.66
relative viability (HCC-78; first compound 0.03162 µM): 0.487
relative viability (HCC-78; first compound 0.1 µM): 0.395
relative viability (HCC-78; first compound 0.3162 µM): 0.492
relative viability (HCC-78; first compound 1 µM): 0.464
relative viability (LCLC-97TM1; first compound 0.01 µM): 0.723
relative viability (LCLC-97TM1; first compound 0.03162 µM): 0.614
relative viability (LCLC-97TM1; first compound 0.1 µM): 0.789
relative viability (LCLC-97TM1; first compound 0.3162 µM): 1.54
relative viability (LCLC-97TM1; first compound 1 µM): 0.305
relative viability (NCI-H1651; first compound 0.01 µM): 1
relative viability (NCI-H1651; first compound 0.03162 µM): 0.94
relative viability (NCI-H1651; first compound 0.1 µM): 1.06
relative viability (NCI-H1651; first compound 0.3162 µM): 1.03
relative viability (NCI-H1651; first compound 1 µM): 0.902
relative viability (PC-3 [JPC-3]; first compound 0.01 µM): 0.895
relative viability (PC-3 [JPC-3]; first compound 0.03162 µM): 0.862
relative viability (PC-3 [JPC-3]; first compound 0.1 µM): 0.972
relative viability (PC-3 [JPC-3]; first compound 0.3162 µM): 0.966
relative viability (PC-3 [JPC-3]; first compound 1 µM): 0.939
relative viability (NCI-H2087; first compound 0.01 µM): 0.85
relative viability (NCI-H2087; first compound 0.03162 µM): 0.909
relative viability (NCI-H2087; first compound 0.1 µM): 1.08
relative viability (NCI-H2087; first compound 0.3162 µM): 1.04
relative viability (NCI-H2087; first compound 1 µM): 0.689
relative viability (NCI-H596; first compound 0.01 µM): 0.976
relative viability (NCI-H596; first compound 0.03162 µM): 1.06
relative viability (NCI-H596; first compound 0.1 µM): 1.03
relative viability (NCI-H596; first compound 0.3162 µM): 1.16
relative viability (NCI-H596; first compound 1 µM): 0.923
relative viability (LC-2-ad; first compound 0.01 µM): 0.998
relative viability (LC-2-ad; first compound 0.03162 µM): 1.06
relative viability (LC-2-ad; first compound 0.1 µM): 1.33
relative viability (LC-2-ad; first compound 0.3162 µM): 1.05
relative viability (LC-2-ad; first compound 1 µM): 1
relative viability (NCI-H1666; first compound 0.01 µM): 0.74
relative viability (NCI-H1666; first compound 0.03162 µM): 0.848
relative viability (NCI-H1666; first compound 0.1 µM): 0.837
relative viability (NCI-H1666; first compound 0.3162 µM): 0.724
relative viability (NCI-H1666; first compound 1 µM): 0.733
relative viability (NCI-H838; first compound 0.01 µM): 0.793
relative viability (NCI-H838; first compound 0.03162 µM): 0.732
relative viability (NCI-H838; first compound 0.1 µM): 0.96
relative viability (NCI-H838; first compound 0.3162 µM): 0.9
relative viability (NCI-H838; first compound 1 µM): 0.579
relative viability (NCI-H650; first compound 0.01 µM): 0.701
relative viability (NCI-H650; first compound 0.03162 µM): 0.787
relative viability (NCI-H650; first compound 0.1 µM): 1.1
relative viability (NCI-H650; first compound 0.3162 µM): 0.921
relative viability (NCI-H650; first compound 1 µM): 0.678
relative viability (NCI-H661; first compound 0.01 µM): 0.892
relative viability (NCI-H661; first compound 0.03162 µM): 0.811
relative viability (NCI-H661; first compound 0.1 µM): 0.745
relative viability (NCI-H661; first compound 0.3162 µM): 0.922
relative viability (NCI-H661; first compound 1 µM): 0.634
relative viability (ChaGo-K-1; first compound 0.01 µM): 1.08
relative viability (ChaGo-K-1; first compound 0.03162 µM): 1.14
relative viability (ChaGo-K-1; first compound 0.1 µM): 1.28
relative viability (ChaGo-K-1; first compound 0.3162 µM): 1.27
relative viability (ChaGo-K-1; first compound 1 µM): 0.742
relative viability (BEN; first compound 0.01 µM): 0.819
relative viability (BEN; first compound 0.03162 µM): 0.528
relative viability (BEN; first compound 0.1 µM): 1.03
relative viability (BEN; first compound 0.3162 µM): 0.766
relative viability (BEN; first compound 1 µM): 0.715
relative viability (LU99A; first compound 0.01 µM): 1.03
relative viability (LU99A; first compound 0.03162 µM): 1.16
relative viability (LU99A; first compound 0.1 µM): 1.34
relative viability (LU99A; first compound 0.3162 µM): 1.23
relative viability (LU99A; first compound 1 µM): 1.13
relative viability (LXF-289; first compound 0.01 µM): 0.99
relative viability (LXF-289; first compound 0.03162 µM): 1.08
relative viability (LXF-289; first compound 0.1 µM): 1.16
relative viability (LXF-289; first compound 0.3162 µM): 0.955
relative viability (LXF-289; first compound 1 µM): 0.846
